# Measurements reported in patent US20110129932A1, “Lipoprotein Assay” (L3 TECHNOLOGY LIMITED, priority 2006, published 2011).
# Key:
# [1] = biological target: T1, Human Serum Albumin (HSA) (Homo sapiens, UniProt P02768); test: K-37 fluorescence bound to HSA with and without octanoate (Example 4); assay type: binding
# Procedure: (§1) The dye K-37 was added at a concentration of 0.5 mM to LDL at a total lipid concentration of 5 mM, in the presence and absence of 50 mg/ml HSA. Measurements were made with and without the addition of 0.1 M sodium octanoate, which acted as a ligand binding inhibitor.
# [2] = Excitation and emission maxima of the dyes; assay type: physicochemical
# [3] = biological target: T1, Human Serum Albumin (HSA); test: Nile Red fluorescence bound to HSA with and without octanoate (Example 5); assay type: binding
# Procedure: as §1
# Following the findings described in Example 4, concerning the addition of octanoate to block the hydrophobic binding sites of HSA, the inventors then observed that Nile Red also binds to HSA and fluoresces. This additional fluorescence of Nile Red when bound to HSA also causes a substantial background signal, which distorts and thereby causes significant errors in the measurement of HDL. They therefore decided to block the hydrophobic binding sites in HSA with the same ligand binding inhibitor as for K-37 blocking, i.e. sodium octanoate. The experiments conducted with Nile Red and HSA, were based on those discussed in Example 4, and all using 0.5 mM Nile Red.
# [4] = biological target: drug binding domain of HSA (Homo sapiens, UniProt P02768); test: Blocking the drug binding domain of HSA in the HDL/Nile red assay
# Sequence of drug binding domain of HSA (P02768 25-609): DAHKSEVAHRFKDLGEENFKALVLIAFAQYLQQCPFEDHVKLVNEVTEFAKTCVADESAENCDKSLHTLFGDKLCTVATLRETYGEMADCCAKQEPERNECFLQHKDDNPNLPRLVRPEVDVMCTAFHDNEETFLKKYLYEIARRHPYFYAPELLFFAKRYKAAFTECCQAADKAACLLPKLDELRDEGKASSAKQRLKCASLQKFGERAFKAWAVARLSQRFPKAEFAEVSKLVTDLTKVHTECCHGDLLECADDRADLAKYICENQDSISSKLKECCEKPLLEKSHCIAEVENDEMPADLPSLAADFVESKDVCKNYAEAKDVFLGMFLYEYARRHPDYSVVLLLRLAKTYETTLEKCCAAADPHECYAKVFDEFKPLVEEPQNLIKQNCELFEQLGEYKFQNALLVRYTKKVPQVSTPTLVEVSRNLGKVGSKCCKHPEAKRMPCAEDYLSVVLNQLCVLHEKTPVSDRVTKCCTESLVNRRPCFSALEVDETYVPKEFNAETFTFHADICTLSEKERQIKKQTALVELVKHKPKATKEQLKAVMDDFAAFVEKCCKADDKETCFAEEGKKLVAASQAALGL
# Excerpt: This led the inventors to realise that the HDL/Nile red assay may be improved further by using an additional blocker. They tried agents that block the drug binding domain of HSA. […] The benzoic acid has the added bonus of quenching the Nile Red residual fluorescence in solution by about 20%.
# T1 sequence (P02768 25-609): as above
smiles,measurement,setting,value
"CN(C)c1ccc(/C=C/C(=O)c2ccc(S(=O)(=O)C(F)F)cc2)cc1 [K-37, 4-dimethylamino-4′-difluoromethyl-sulphonyl-benzylidene-acetophenone]",Fluorescence Intensity,[1]; 0.5 mM K-37 plus 50 mg/ml HSA,79300 units
same,Fluorescence Intensity,[1]; 0.5 mM K-37 plus 50 mg/ml HSA + 0.1 M sodium octanoate,3600 units
c1cc2ccc3cccc4ccc(c1)c2c34 [pyrene],excitation maximum,[2],320 nm
CCN(CC)c1ccc2nc3c4ccccc4c(=O)cc-3oc2c1 [Nile Red],Fluorescence Intensity,[3]; 0.5 mM Nile Red plus 50 mg/ml HSA,58.905 units
same,Fluorescence Intensity,[3]; 0.5 mM Nile Red plus 50 mg/ml HSA + 50 mM octanoate,9.118 units
O=C(O)c1ccccc1 [benzoic acid],quenching of the Nile Red residual fluorescence in solution,[4],about 20%
same,displacement of Nile Red from HSA,"[4]; at about 5 mM, without affecting the lipoprotein fluorescence",worked to displace the Nile Red from HSA
